Patent publication US4464371A, “Five-membered heterocyclic compounds” (Santen Pharmaceutical Co., Ltd., priority 1980, dated 1984)

How the values were obtained:
[1] = tested on: blood pressure of spontaneously hypertensive rats; assay: Hypotensive effect in spontaneously hypertensive rats (oral, indirect tail-cuff method); format: in vivo, Male spontaneously hypertensive rats (Charles River); conditions: 10 mg/Kg and 30 mg/Kg, suspended in 0.5% tragacanth, male spontaneously hypertensive rats
Protocol: Male spontaneously hypertensive rats (Charles River) weighing 370-430 g (37-43 weeks of age) were used.
The subject compound, suspended in 0.5% tragacanth, was given orally to the animals. Their blood pressure was measured by indirect tail-cuff method using a programmed electrosphygmomanometer.
In the figure, line 1 and line 2 represent the hypotensive effect by the compound of this invention at doses of 30 mg/Kg and 10 mg/Kg, respectively, line 3 that by the reference compound at a dose of 30 mg/Kg, and line 4 control (no drugs).

[2] = Acute toxicity test; format: in vivo, male mice; conditions: mouse, in vivo; intravenous, administered as aqueous sodium hydroxide solution, male mice
Excerpt: (§1) Acute toxicity of (2R,4R)--3--[S--[4--(dipropylsulfamoyl)--benzoyl]--3--mercaptopropionyl]-- 2--(2--hydroxyphenyl)--4--thiazolidinecarboxylic acid is shown in the table.
(§2) *^1 administered as tragacanth
(§3) *^2 administered as aqueous sodium hydroxide solution
(§4) Animals used in this test were ten male mice in each route.

[3] = tested on: mice; assay: Acute toxicity test; format: in vivo, male mice
Excerpt: as §1, §2, §3, §4

CCCN(CCC)S(=O)(=O)c1ccc(C(=O)SCCC(=O)N2[C@@H](c3ccccc3O)SC[C@H]2C(=O)O)cc1 [Example 1, (2R,4R)--3--[S--[4--(Dipropylsulfamoyl)benzoyl]--3--mercaptopropionyl]--2-- (2--hydroxyphenyl)--4--thiazolidinecarboxilic acid]
decrease of blood pressure (hypotensive effect) [1]: clearly decreased the blood pressure
LD50 [2]: > 500 mg/kg
LD50 (deaths observed) ([3]; mouse, in vivo, po, 1000 mg/kg): No death was observed
acute toxicity (overall) ([3]; oral and intravenous, male mice): low toxicity
